“Also recorded” adds a separate entry of the source.
Legend:
[1] = tested on: extracellular release of miR-146a; test: Extracellular release of miRs from cultured mouse keratinocytes (RT-qPCR); assay type: cell-based; conditions: mouse keratinocytes
Experimental: Primary mouse keratinocytes were cultured following previous protocol (Chen et al. J. Biol. Chem. 2016, 291, 10252-10262). The epidermis from the back skin of newborn WT or keratinocyte-Trpv4 cKO mice was separated from the dermis by floating the skin on 0.25% trypsin (Gibco, Gaithersburg, MD) for 14-18 h at 4° C. Basal keratinocytes were separated from the cornified sheets by filtration through a […] cell strainer. Keratinocytes were plated on collagen I-coated dishes or glass coverslips and grown in EME media (Gibco, Gaithersburg, MD) containing 8% chelex (Bio-rad, Hercules, CA)-treated FBS with the final Ca^2+ adjusted to 0.05 mM, bovine pituitary extract (50 μg/mL), epidermal growth factor (5 ng/mL), and lx antibiotics/antimycotics (Gibco, Gaithersburg, MD) in a humidified incubator with 5% CO2 at 37° C. for 5-7 days until use. To knockdown Trpv4 in isolated keratinocytes from newborn keratinocyte-Trpv4 cKO mice, cells were treated with 4-OH tamoxifen at 500 nM for 72 h.
Measurement of released vesicles and extracellular miR-146a from cultured keratinocytes or sera Medium for the cultured keratinocytes was replaced with serum-free medium 2 h before LPC stimulation. […] Finally, cell-free supernatants were further purified using a Vesicular Isolation kit (Invitrogen, Waltham, MA) according to the manufacturer's instructions, with final product resuspended in ice-cold PBS. Total RNA extraction was then carried out using a Total RNA Isolation kit (Invitrogen, Waltham, MA). Enrichment for small RNAs was carried out by sequential increase in ethanol concentration and passing through glass-fiber filters. RNase free water was used to elute small RNAs in the final elution step. For human PBC sera or sera from ANIT-treated mice, RNA was isolated using Qiagen miRNeasy Plasma/Serum kit. cDNA synthesis from extracted RNAs was performed according to manufacturer's instructions (qSTAR miRNA kit, Origene). For qPCR, the stem-loop oligonucleotides specific for the following miRs are as follows: miR-146a-5p (GAGAACTGAATTCCATGGG, SEQ ID NO: 4), miR-let-7b (GAGGTAGTAGGTTGTGTGG, SEQ ID NO: 5), miR-125b-1 (CCCT GAGACCCTAACTTG, SEQ ID NO: 6), miR-203 (GTGGTTC TTGACAGTTCAAC, SEQ ID NO: 7), and miR-16-5p (AGCAGCAC GTAAATATTGGC, SEQ ID NO: 8). Primers were purchased from Integrated DNA Technologies company (Coralville, IA). qPCR reactions for each sample were run in triplicates, including no-template controls. MiR-16-5p was selected as a control due to the relative constancy of its expression in various cultured cell lines (Schwarzenbach et al. Clin. Chem. 2015, 61, 1333-1342). qPCR for this miR was performed in tandem with target miRs to determine the optimal normalization procedure. To investigate the effects of the specific TRPV4 inhibitors GSK205 or HC067047 and the specific MEK inhibitor U0126 on LPC-induced extracellular release of miR-146a, cells were incubated with the inhibitors for 15 min before stimulation. Control cells received the same volume of vehicle.
Vesicular release from cultured keratinocytes was quantified by detecting acetylcholinesterase (AChE) activity in the extracellular release fluid. (Gupta et al. Am. J. Physiol. Heart Circ. Physiol. 2007, 292, H3052-3056; Malik et al. Methods Mol. Biol. 2016, 1448, 237-248). CBQCA Protein Quantitation Kit (Molecular Probes, Eugene, OR) was used to assess the total protein amounts of each sample. Quantitation was carried out according to kit instructions (Fluorocet, Systems Biosciences, Palo Alto, CA). Briefly, vesicles were lysed to release esterase enzyme whose activity is measured using a florescence dye, excitation at 544 nm and emission at 590 nm. Fluostar Optima (BMG Labtech, Cary, NC) microplate reader was used to measure esterase activity. 500 ng protein equivalent of input was used per well. […]

[2] = tested on: extracellular release of miR-146a; test: Extracellular release of miR-146a from cultured human keratinocytes (RT-qPCR); assay type: cell-based
Experimental: Primary human keratinocytes were cultured as previously described (Chen et al. J. Biol. Chem. 2016, 291, 10252-10262). In brief, surgically discarded foreskin samples, obtained from Duke Children's Hospital in accordance to institutionally approved IRB protocol, were incubated with Dispase (Gibco, Gaithersburg, MD, 4 U/mL) for 12-16 h at 4° C. followed by 0.05% trypsin (Gibco, Gaithersburg, MD) for 10-20 min at 37° C. Cells were maintained in keratinocyte serum-free media (Invitrogen, Waltham, MA) with 5% CO2 at 37° C. and used at passage 2-3.
Measurement of released vesicles and extracellular miR-146a from cultured keratinocytes or sera Medium for the cultured keratinocytes was replaced with serum-free medium 2 h before LPC stimulation. Fifteen minutes after LPC, the supernatant of the cells was harvested and subjected to two steps of centrifugation (i) 300 g for 5 min to eliminate remaining cells, (ii) 16,000 g for 30 min to eliminate cell debris and apoptotic bodies. Finally, cell-free supernatants were further purified using a Vesicular Isolation kit (Invitrogen, Waltham, MA) according to the manufacturer's instructions, with final product resuspended in ice-cold PBS. Total RNA extraction was then carried out using a Total RNA Isolation kit (Invitrogen, Waltham, MA). […]

Row | SMILES | effect of TRPV4 inhibitors on LPC-induced release of miR-146a ([1]; inhibitor 10 μM) | effect of TRPV4 inhibitors on LPC-induced release of miR-146a ([2]; inhibitor 10 μM) | effect of MEK inhibitor on LPC-induced release of miR-146a ([1]; 10 μM) | effect of MEK inhibitor on LPC-induced release of miR-146a ([2]; 10 μM)
1 | Cc1c(C(=O)Nc2cccc(C(F)(F)F)c2)cc(-c2ccccc2)n1CCCN1CCOCC1 [HC067047] | completely eliminated | completely eliminated | – | –
2 | N#CC(=C(/N)Sc1ccccc1N)/C(C#N)=C(\N)Sc1ccccc1N [U0126] | – | – | eliminated; also recorded: abolished | eliminated; also recorded: abolished
